Measured values: ChEMBL document CHEMBL2073825, “Ex vivo reversal of chemoresistance by tariquidar (XR9576)” (Anticancer Drugs, 2004)

Biological target: ATP-dependent translocase ABCB1 (Homo sapiens, UniProt P08183)
Assay: TP_TRANSPORTER: Vinorelbine-induced cytotoxicity in P-gp positive tumor
Assay type: functional, tissue-based, Neoplasm

Sequence of ATP-dependent translocase ABCB1 (P08183 whole entry): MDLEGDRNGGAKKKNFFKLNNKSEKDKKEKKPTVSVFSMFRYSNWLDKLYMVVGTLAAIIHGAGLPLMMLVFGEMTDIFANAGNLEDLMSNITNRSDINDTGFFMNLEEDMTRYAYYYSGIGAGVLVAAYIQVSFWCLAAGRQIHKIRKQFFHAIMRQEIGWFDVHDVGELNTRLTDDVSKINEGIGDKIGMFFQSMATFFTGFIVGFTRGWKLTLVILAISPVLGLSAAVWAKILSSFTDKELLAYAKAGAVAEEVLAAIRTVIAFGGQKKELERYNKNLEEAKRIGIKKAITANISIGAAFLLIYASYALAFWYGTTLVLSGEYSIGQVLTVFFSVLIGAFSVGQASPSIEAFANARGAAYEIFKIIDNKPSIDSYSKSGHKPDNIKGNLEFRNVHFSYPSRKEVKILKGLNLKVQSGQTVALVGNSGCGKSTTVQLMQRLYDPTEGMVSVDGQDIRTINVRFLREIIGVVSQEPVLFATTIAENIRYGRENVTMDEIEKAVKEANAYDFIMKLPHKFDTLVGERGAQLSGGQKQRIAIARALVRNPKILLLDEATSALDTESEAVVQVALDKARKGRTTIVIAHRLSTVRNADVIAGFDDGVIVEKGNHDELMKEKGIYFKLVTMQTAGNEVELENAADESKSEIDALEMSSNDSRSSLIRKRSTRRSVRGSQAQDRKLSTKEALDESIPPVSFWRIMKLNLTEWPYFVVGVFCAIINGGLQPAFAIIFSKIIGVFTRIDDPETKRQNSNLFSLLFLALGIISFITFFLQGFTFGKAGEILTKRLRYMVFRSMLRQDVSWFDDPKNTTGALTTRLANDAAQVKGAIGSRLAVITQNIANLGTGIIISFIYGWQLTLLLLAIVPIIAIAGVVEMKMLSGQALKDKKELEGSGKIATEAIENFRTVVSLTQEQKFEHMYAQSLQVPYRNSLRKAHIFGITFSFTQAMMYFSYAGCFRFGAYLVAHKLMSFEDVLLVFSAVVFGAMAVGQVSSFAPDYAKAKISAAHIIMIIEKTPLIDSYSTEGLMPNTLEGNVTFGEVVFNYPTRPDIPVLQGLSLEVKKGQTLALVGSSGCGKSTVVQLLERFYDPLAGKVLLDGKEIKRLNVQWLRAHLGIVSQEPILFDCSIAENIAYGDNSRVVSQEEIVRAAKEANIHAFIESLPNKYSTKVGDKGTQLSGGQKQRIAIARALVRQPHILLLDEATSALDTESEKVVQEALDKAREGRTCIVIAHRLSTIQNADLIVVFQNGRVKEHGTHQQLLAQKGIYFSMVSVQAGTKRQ

**Q.** `COc1cc2c(cc1OC)CN(CCc1ccc(NC(=O)c3cc(OC)c(OC)cc3NC(=O)c3cnc4ccccc4c3)cc1)CC2` [TARIQUIDAR] was tested. Which Activity did it give?
**A.** inhibitor [+]
